According to the supplement of paper PMC10307832:

Columns and labels:
Experiment in all cases: relative viability (nuclei count vs DMSO), 5 days (fraction); higher = more cells survive
Bexarotene + Navitoclax = compound: C=C(c1ccc(C(=O)O)cc1)c1cc2c(cc1C)C(C)(C)CCC2(C)C [Bexarotene] + CC1(C)CCC(c2ccc(Cl)cc2)=C(CN2CCN(c3ccc(C(=O)NS(=O)(=O)c4ccc(N[C@H](CCN5CCOCC5)CSc5ccccc5)c(S(=O)(=O)C(F)(F)F)c4)cc3)CC2)C1 [Navitoclax] (partner 0.5 µM)
In short: (§1)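 Relative viability was taken as the ratio of nuclei in treated wells to nuclei in vehicle wells. Lung cancer cell lines in 1536-well plates received compounds by pin tool one day after seeding, either one drug alone or a fixed anchor-drug dose plus five library-drug doses (not always all listed) in √10 steps. Nuclei were counted on 4× images after 5 days of treatment, and values are medians of duplicate plates.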

Bexarotene + Vorinostat = compound: C=C(c1ccc(C(=O)O)cc1)c1cc2c(cc1C)C(C)(C)CCC2(C)C [Bexarotene] + O=C(CCCCCCC(=O)Nc1ccccc1)NO [Vorinostat] (partner 1 µM)
In short: as §1

Bexarotene + Crizotinib = compound: C=C(c1ccc(C(=O)O)cc1)c1cc2c(cc1C)C(C)(C)CCC2(C)C [Bexarotene] + C[C@@H](Oc1cc(-c2cnn(C3CCNCC3)c2)cnc1N)c1c(Cl)ccc(F)c1Cl [Crizotinib] (partner 1 µM)
In short: as §1

Bexarotene + Tozasertib = compound: C=C(c1ccc(C(=O)O)cc1)c1cc2c(cc1C)C(C)(C)CCC2(C)C [Bexarotene] + Cc1cc(Nc2cc(N3CCN(C)CC3)nc(Sc3ccc(NC(=O)C4CC4)cc3)n2)n[nH]1 [Tozasertib] (partner 0.1 µM)
In short: as §1

Row | Cell Line | relative viability (Bexarotene + Navitoclax; first compound 0.08 µM) | relative viability (Bexarotene + Navitoclax; first compound 0.253 µM) | relative viability (Bexarotene + Navitoclax; first compound 0.8 µM) | relative viability (Bexarotene + Navitoclax; first compound 2.53 µM) | relative viability (Bexarotene + Navitoclax; first compound 8 µM) | relative viability (Bexarotene + Vorinostat; first compound 0.08 µM) | relative viability (Bexarotene + Vorinostat; first compound 0.253 µM) | relative viability (Bexarotene + Vorinostat; first compound 0.8 µM) | relative viability (Bexarotene + Vorinostat; first compound 2.53 µM) | relative viability (Bexarotene + Vorinostat; first compound 8 µM) | relative viability (Bexarotene + Crizotinib; first compound 0.08 µM) | relative viability (Bexarotene + Crizotinib; first compound 0.253 µM) | relative viability (Bexarotene + Crizotinib; first compound 0.8 µM) | relative viability (Bexarotene + Crizotinib; first compound 2.53 µM) | relative viability (Bexarotene + Crizotinib; first compound 8 µM) | relative viability (Bexarotene + Tozasertib; first compound 0.08 µM) | relative viability (Bexarotene + Tozasertib; first compound 0.253 µM) | relative viability (Bexarotene + Tozasertib; first compound 0.8 µM) | relative viability (Bexarotene + Tozasertib; first compound 2.53 µM) | relative viability (Bexarotene + Tozasertib; first compound 8 µM)
1 | COR-L 105 | 0.715 | 0.856 | 0.882 | 0.983 | 0.617 | 0.844 | 0.896 | 0.855 | 0.874 | 0.927 | 0.863 | 0.951 | 0.88 | 0.857 | 0.699 | 0.395 | 0.328 | 0.324 | 0.442 | 0.388
2 | LK-2 | 1.1 | 0.782 | 0.935 | 0.944 | 0.802 | 0.337 | 0.278 | 0.342 | 0.277 | 0.332 | 0.309 | 0.213 | 0.206 | 0.221 | 0.247 | 0.175 | 0.162 | 0.185 |  | 0.165
3 | NCI-H727 | 0.467 | 0.38 | 0.452 | 0.354 | 0.405 | 1.46 | 1.16 | 1.26 | 1.18 | 0.971 | 0.856 | 0.912 | 0.87 | 0.677 | 0.708 | 0.622 | 0.584 | 0.76 | 0.64 | 0.618
4 | RERF-LC-KJ | 1.07 | 0.934 | 1.08 | 1 | 0.92 | 0.689 | 0.707 | 0.641 | 0.7 | 0.609 | 0.773 | 0.791 | 0.76 | 0.777 | 0.752 | 0.459 | 0.585 | 0.415 | 0.467 | 0.542
5 | NCI-H2023 | 0.991 | 0.993 | 0.921 | 0.851 | 0.729 | 0.644 | 0.941 | 0.619 | 0.57 | 0.528 | 0.609 | 0.591 | 0.715 | 0.624 | 0.494 | 0.395 | 0.385 | 0.417 | 0.328 | 0.283
6 | SW 900 |  |  |  |  |  | 0.543 | 0.473 | 0.433 | 0.453 | 0.471 |  |  |  |  |  | 0.559 | 0.617 | 0.589 | 0.498 | 0.431
7 | NCI-H2342 |  |  |  |  |  | 0.758 | 0.647 | 0.666 | 0.571 | 0.731 |  |  |  |  |  | 0.552 | 0.57 | 0.429 | 0.473 | 0.512
8 | NCI-H1793 | 0.351 | 0.556 | 0.332 | 0.35 | 0.464 | 0.666 | 0.784 | 0.611 | 0.604 | 0.601 |  |  |  |  |  | 0.308 | 0.319 | 0.394 | 0.287 | 0.337
9 | NCI-H1648 |  |  |  |  |  | 0.477 | 0.422 | 0.455 | 0.518 | 0.639 |  |  |  |  |  | 0.453 | 0.559 | 0.307 | 0.492 | 0.384
10 | ABC-1 |  |  |  |  |  | 1.07 | 0.883 | 0.742 |  | 1.03 | 1.02 | 0.893 | 0.853 | 1.3 | 0.829 | 0.19 | 0.175 | 0.21 | 0.197 | 0.196
11 | NCI-H661 |  |  |  |  |  | 0.876 | 0.814 | 0.878 | 0.861 | 0.808 | 0.866 | 1.13 | 1.02 | 0.96 | 1.04 | 0.387 | 0.357 | 0.348 | 0.355 | 0.341
12 | NCI-H358 |  |  |  |  |  | 0.7 | 0.798 | 0.667 | 0.934 | 0.703 | 0.541 | 0.603 | 0.497 | 0.66 | 0.49 | 0.0977 | 0.105 | 0.0984 | 0.108 | 0.121
13 | EBC-1 | 0.43 | 0.401 | 0.333 | 0.344 | 0.369 |  |  |  |  |  | 0.196 | 0.212 | 0.237 | 0.217 | 0.192 |  |  |  |  | 
14 | NCI-H650 |  |  |  |  |  | 0.542 | 0.497 | 0.429 | 0.457 | 0.467 | 0.749 | 0.613 | 0.739 | 0.615 | 0.6 | 0.747 | 0.724 | 0.721 | 0.789 | 0.687
15 | NCI-H1792 | 0.588 | 0.515 | 0.489 | 0.297 | 0.579 |  |  |  |  |  | 0.859 | 0.947 | 0.874 | 0.737 | 0.831 |  |  |  |  | 
16 | A549 | 1.18 | 1.29 | 1.15 | 0.986 | 0.938 |  |  |  |  |  | 0.736 | 0.793 | 0.65 | 0.669 | 0.594 |  |  |  |  | 
17 | NCI-H1703 | 1.08 | 1.14 | 0.915 | 0.913 | 0.692 |  |  |  |  |  | 0.414 | 0.601 | 0.57 | 0.421 | 0.522 |  |  |  |  | 
18 | LCLC-103H |  |  |  |  |  | 0.891 | 0.976 | 0.691 | 0.771 | 0.875 | 1.15 | 1.21 | 1.03 | 0.999 | 1.12 | 0.531 | 0.452 | 0.428 | 0.48 | 0.43
19 | NCI-H1563 |  |  |  |  |  |  |  |  |  |  | 0.842 | 0.843 | 0.916 | 0.876 | 0.81 |  |  |  |  | 
20 | NCI-H1395 | 1.19 | 1.11 | 1.05 | 1.07 | 1.1 | 0.963 | 0.775 | 0.723 | 0.49 | 0.73 |  |  |  |  |  | 0.754 | 0.77 | 0.746 | 0.687 | 0.799
